Test results taken from ChEMBL document CHEMBL1201862, “PubChem BioAssay data set” (2004).
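Protocol summary: plate cells (96-well), add compound at 5 concentrations, incubate 48 h, interpolate endpoints linearly. At the GI50, growth is halved.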 Active and inactive are the calls of the source. Cut-off read from the data, not from the text of the source: active = GI50 up to about 1.1 µM and inactive = higher.

Key:
Experiment in all cases: DTP human tumour cell line panel, 48 h
KM-20L2 = test system: KM-20L2
M19-MEL = test system: M19-MEL
MOLT-4 = test system: MOLT-4
HT-29 = test system: HT-29
SNB-78 = test system: SNB-78
SF-268 = test system: SF-268
DMS-114 = test system: DMS-114
M14 = test system: M14
DLD-1 = test system: DLD-1
CAKI-1 = test system: CAKI-1
LOX IMVI = test system: LOX IMVI
HOP-92 = test system: HOP-92
NCI/ADR-RES = test system: NCI/ADR-RES
MCF7 = test system: MCF7
MDA-N = test system: MDA-N
PC-3 = test system: PC-3
MDA-MB-231 = test system: MDA-MB-231
T47D = test system: T47D
Hs-578T = test system: Hs-578T
MDA-MB-435 = test system: MDA-MB-435

SMILES	GI50 (KM-20L2)	GI50 (M19-MEL)	GI50 (MOLT-4)	GI50 (HT-29)	GI50 (SNB-78)	GI50 (SF-268)	GI50 (DMS-114)	GI50 (M14)	GI50 (DLD-1)	GI50 (CAKI-1)	GI50 (LOX IMVI)	GI50 (HOP-92)	GI50 (NCI/ADR-RES)	GI50 (MCF7)	GI50 (MDA-N)	GI50 (PC-3)	GI50 (MDA-MB-231)	GI50 (T47D)	GI50 (Hs-578T)	GI50 (MDA-MB-435)
O=C1c2ccccc2N(O)C1(c1ccccc1)C1CCCC=C1N1CCOCC1 (stereo not given)	> 100 µM (inactive)	> 100 µM (inactive)	20.8 µM (inactive)	> 100 µM (inactive)	> 100 µM (inactive)	40.8 µM (inactive)	50.1 µM (inactive)	> 100 µM (inactive)	> 100 µM (inactive)	> 100 µM (inactive)	71.1 µM (inactive)									
O=c1nc(NC(c2ccccc2)(c2ccccc2)c2ccccc2)ccn1CCCl	16.4 µM (inactive)	18.8 µM (inactive)	16.2 µM (inactive)	17 µM (inactive)	29.2 µM (inactive)	17.2 µM (inactive)	14.5 µM (inactive)		35.3 µM (inactive)		17.1 µM (inactive)	14.2 µM (inactive)								
CC(=O)NNc1nc(C)c(C(=O)NNC(=O)C(=O)Nc2ccc([N+](=O)[O-])cc2C#N)s1	> 100 µM (inactive)	> 100 µM (inactive)	38.5 µM (inactive)	> 100 µM (inactive)	> 100 µM (inactive)	52.2 µM (inactive)	> 100 µM (inactive)	> 100 µM (inactive)			52.7 µM (inactive)									
CCOC(=O)/C=C/n1c2ccccc2c(=O)c2ccccc21	> 100 µM (inactive)	> 100 µM (inactive)	> 100 µM (inactive)	> 100 µM (inactive)		> 100 µM (inactive)	> 100 µM (inactive)	> 100 µM (inactive)	23.1 µM (inactive)	> 100 µM (inactive)	> 100 µM (inactive)									
O=[N+]([O-])c1ccc(N2N=C(c3ccc(NCc4nc5ccccc5[nH]4)cc3)CC2c2ccco2)cc1 (stereo not given)		29.3 µM (inactive)	10.4 µM (inactive)	27.5 µM (inactive)		34.8 µM (inactive)	18.1 µM (inactive)	23.5 µM (inactive)	29.4 µM (inactive)	48.6 µM (inactive)	18.5 µM (inactive)	32.2 µM (inactive)								
ClCc1ccc2ccc3ccc(CCl)nc3c2n1	4.1 µM (inactive)	1.76 µM (inactive)	1.73 µM (inactive)	2.17 µM (inactive)	2.88 µM (inactive)	4.19 µM (inactive)	1.87 µM (inactive)		1.5 µM (inactive)		1.56 µM (inactive)	2.09 µM (inactive)	1.71 µM (inactive)	0.955 µM (active)						
O=C(/C=C/c1ccc(OCc2ccccc2)cc1)NCc1ccc(C(=O)NCc2ccccc2)cc1			> 100 µM (inactive)	> 100 µM (inactive)		> 100 µM (inactive)		> 100 µM (inactive)		> 100 µM (inactive)	> 100 µM (inactive)	> 100 µM (inactive)	> 100 µM (inactive)	> 100 µM (inactive)	> 100 µM (inactive)	> 100 µM (inactive)	> 100 µM (inactive)	> 100 µM (inactive)	> 100 µM (inactive)	> 100 µM (inactive)
CC(=O)Nc1ccc(C(=O)NN2C(=O)C(Cl)/C2=C/c2ccco2)cc1 (stereo not given)		> 100 µM (inactive)	> 100 µM (inactive)	> 100 µM (inactive)		> 100 µM (inactive)			> 100 µM (inactive)			> 100 µM (inactive)								
O=C(NCCCl)SCCO	> 100 µM (inactive)	> 100 µM (inactive)	> 100 µM (inactive)	> 100 µM (inactive)	> 100 µM (inactive)	> 100 µM (inactive)	> 100 µM (inactive)	> 100 µM (inactive)	> 100 µM (inactive)											
COc1cccc(OCC(=N/NC(=O)c2ccncc2)/N=C/c2ccncc2)c1			> 100 µM (inactive)	> 100 µM (inactive)		> 100 µM (inactive)		> 100 µM (inactive)		> 100 µM (inactive)	> 100 µM (inactive)	> 100 µM (inactive)	> 100 µM (inactive)	> 100 µM (inactive)	> 100 µM (inactive)	> 100 µM (inactive)	> 100 µM (inactive)	> 100 µM (inactive)	> 100 µM (inactive)	> 100 µM (inactive)
O=C1C(Cl)N(c2ccccc2[N+](=O)[O-])C1c1c[nH]c2ccccc12 (stereo not given)	> 100 µM (inactive)	> 100 µM (inactive)	> 100 µM (inactive)	> 100 µM (inactive)		> 100 µM (inactive)	> 100 µM (inactive)	> 100 µM (inactive)				81.3 µM (inactive)								
CC(=O)c1c2c(cc3c1CC1(Cc4cc5c(cc4C1)C(=O)CCC5)C3)CCCC2 (stereo not given)			2.59 µM (inactive)	3.25 µM (inactive)		8.07 µM (inactive)		7.8 µM (inactive)		7.73 µM (inactive)	7.18 µM (inactive)	2.55 µM (inactive)	5 µM (inactive)	4.49 µM (inactive)	2.87 µM (inactive)	5.53 µM (inactive)	9.25 µM (inactive)	5.38 µM (inactive)	> 29.9 µM (inactive)	2.94 µM (inactive)
